This is an account of results in patent US20130004936A1, “SUPERCOOLING PROMOTING AGENT” (National University Corporation Hokkaido Universit, priority 2010, published 2013).

Format in all cases: physicochemical
In series [1] the test system is dead bacterial cells of an ice nucleation active bacterium (Erwinia ananas). In words: Supercooling activity (ice nucleus formation inhibitory activity), 2-μL droplets on cooled copper plate, Erwinia ananas as ice nucleus substance. The settings on record: for freezing temperature (INT50): 0.1 mass % substance, 2 mg/mL dead E. ananas cells, cooling 0.2° C./min, temperature at which 50% of droplets froze; for activity that allows water to be supercooled: 2 mg/mL Erwinia ananas, substance 0.01 to 3 mg/mL (FIG. 6). The procedure:
(§1) In the present invention, a supercooling activity (also referred to as ice nucleus formation inhibitory activity) was measured by the following method. That is, an object to be measured was mixed at […] in a buffer containing an ice nucleus substance to prepare a solution, and many 2-μL liquid droplets of the solution were placed on a copper plate where the temperature could be controlled. The copper plate was cooled at 0.2° C./min, and the number of frozen liquid droplets was visually observed. The temperature at which 50% of the liquid droplets were frozen was defined as a freezing temperature, and a difference between the freezing temperature of the solution including the object to be measured and the ice nucleus substance and the freezing temperature of a solution including only the ice nucleus substance and the buffer (control) (INT50 (° C.)) was defined as a supercooling activity. As the buffer, a 50 mM potassium phosphate buffer (pH 7.0) was used.
The water suspension of the crude extract was centrifuged at 20° C. and 14,000 G, and the supernatant was collected. 300 mL of the supernatant and 600 mL of ethyl acetate were mixed, and the mixture was divided into a water-soluble part and an ethyl acetate-soluble part by a separating funnel, followed by drying. Supercooling activities of the parts were measured by the above-mentioned method. Dead bacterial cells of an ice nucleation active bacterium (Erwinia ananas) (manufactured by Wako Pure Chemical Industries, Ltd.) were used as an ice nucleus substance.
The fractions K to S obtained above were analyzed by high-performance liquid chromatography (column: PC hydrophilic interaction chromatography column (HILIC), solvent: acetonitrile:water=9:1, flow rate: 1 mL/min, detector: UV 280 nm). […] The three substances are known substances, and their structures were confirmed by ^1H-NMR. FIGS. 3 to 5 show the resultant ^1H-NMR charts. FIG. 6 show the supercooling activity of water containing each of the three substances with 2 mg/mL Erwinia ananas serving as an ice nucleus-forming substance, together with control data in the case of containing none of the three substances.
A substance to be measured (1 mg/mL) was mixed in a buffer containing any one of the ice nucleus substances and ultrapure water (MilliQ Water), and the supercooling activities were measured by the above-mentioned method. A difference between the freezing temperature of the solution containing the substance to be measured and the ice nucleus substance and the freezing temperature of the solution including only the ice nucleus substance, and a difference between the freezing temperature of pure water having dissolved therein the substance to be measured and the freezing temperature of only pure water were determined as supercooling activities (ice nucleus formation inhibitory activities) (see FIGS. 8 to 11 and Tables 1 to 4).

A short description of series [2]: Supercooling activity, droplets on cooled copper plate, silver iodide as ice nucleus substance. The settings on record: for freezing temperature (INT50): 0.1 mass % substance, 10 mM AgI, cooling 0.2° C./min; for supercooling activity: against an ice nucleus substance AgI, concentration not given. The method, then:
as §1
In Examples 4 to 8 below, 10 mM silver iodide (AgI) (manufactured by NACALAI TESQUE, INC.), 2 mg/mL dead bacterial cells of an ice nucleation active bacterium Erwinia ananas (manufactured by Wako Pure Chemical Industries, Ltd.), 2 mg/mL dead bacterial cells of an ice nucleation active bacterium Xanthomonas campestris (manufactured by Wako Pure Chemical Industries, Ltd.), and 120 mM phloroglucinol (manufactured by TOKYO CHEMICAL […] CO., LTD.) were used as ice nucleus substances, and ultrapure water obtained by passing water through an ultrapure water device manufactured by Millipore Corporation was used (MilliQ Water). A substance to be measured (1 mg/mL) was mixed in a buffer containing any one of the ice nucleus substances and ultrapure water (MilliQ Water), and the supercooling activities were measured by the above-mentioned method. A difference between the freezing temperature of the solution containing the substance to be measured and the ice nucleus substance and the freezing temperature of the solution including only the ice nucleus substance, and a difference between the freezing temperature of pure water having dissolved therein the substance to be measured and the freezing temperature of only pure water were determined as supercooling activities (ice nucleus formation inhibitory activities) (see FIGS. 8 to 11 and Tables 1 to 4).

The subject of series [3] is dead bacterial cells of an ice nucleation active bacterium Xanthomonas campestris. As to the kind of experiment: Supercooling activity, droplets on cooled copper plate, Xanthomonas campestris as ice nucleus substance. Particulars: 0.1 mass % substance; 2 mg/mL dead X. campestris cells; cooling 0.2° C./min. The method, then:
as §1, with “used. […]” for “used.”

Series [4] is described as follows: Supercooling activity, droplets on cooled copper plate, phloroglucinol as ice nucleus substance. The settings on record: 0.1 mass % substance; 120 mM phloroglucinol; cooling 0.2° C./min. The procedure: as §1
(§2) In Examples 4 to 8 below, 10 mM silver iodide (AgI) (manufactured by NACALAI TESQUE, INC.), 2 mg/mL dead bacterial cells of an ice nucleation active bacterium Erwinia ananas (manufactured by Wako Pure Chemical Industries, Ltd.), 2 mg/mL dead bacterial cells of an ice nucleation active bacterium Xanthomonas campestris (manufactured by Wako Pure Chemical Industries, Ltd.), and 120 mM phloroglucinol (manufactured by TOKYO CHEMICAL […] CO., LTD.) were used as ice nucleus substances, and ultrapure water obtained by passing water through an ultrapure water device manufactured by Millipore Corporation was used (MilliQ Water). A substance to be measured (1 mg/mL) was mixed in a buffer containing any one of the ice nucleus substances and ultrapure water (MilliQ Water), and the supercooling activities were measured by the above-mentioned method. […]

Series [5] in a line: Supercooling activity, droplets on cooled copper plate, ultrapure water without ice nucleus substance. Particulars: 0.1 mass % substance; ultrapure water (MilliQ Water); cooling 0.2° C./min. The method, then:
as §1, §2

Take `O=C(O[C@@H]1Cc2c(O)cc(O)cc2O[C@@H]1c1ccc(O)c(O)c1)c1cc(O)c(O)c(O)c1` [ECG, epicatechin gallate]: the “freezing temperature (INT50)” value in series [1] is −8.4 °C; in series [2], −7.8 °C; in series [3], −8.7 °C; in series [4] it was −9.6 °C; in series [5] it was −18.7 °C.
As to `O=C(OC[C@H]1O[C@@H](OC(=O)c2cc(O)c(O)c(O)c2)[C@H](OC(=O)c2cc(O)c(O)c(O)c2)[C@@H](OC(=O)c2cc(O)c(O)c(O)c2)[C@@H]1O)c1cc(O)c(O)c(O)c1` [1,2,3,6-tetra-O-galloyl-β-D-glucose], the “activity that allows water to be supercooled” value in series [1] is “about 5 °C”.
Regarding `Oc1cc(O)c2c(c1)O[C@H](c1cc(O)c(O)c(O)c1)[C@H](O)C2` [EGC, epigallocatechin], the “freezing temperature (INT50)” value in series [1] is −5.7 °C; in series [2], −6.9 °C; in series [4], −8.8 °C; in series [5], −15.8 °C.
`O=c1oc2c(O)c(O)cc3c(=O)oc4c(O)c(O)cc1c4c23` [EA, ellagic acid] gave a supercooling activity in series [2] of −0.3 °C.
The same measure, in the same setting: in the case of `O=C(/C=C/c1ccc(O)c(O)c1)O[C@@H]1C[C@](O)(C(=O)O)C[C@@H](O)[C@H]1O` [ChA, chlorogenic acid] it was −0.6 °C; in that of `O=C(O)c1cc(O)c(O)c(O)c1` [GA, gallic acid], −1.2 °C; in that of `O=C(O)/C=C/c1ccc(O)c(O)c1` [CaA, caffeic acid], −1.9 °C.
For the compound 2,3,6-tri-O-galloyl-α,β-D-hamamelose, the “activity that allows water to be supercooled” value in series [1] is “about 5 °C”.
The same measure, in the same setting: in the case of `O=C(OC[C@H]1O[C@@H](OC(=O)c2cc(O)c(O)c(O)c2)[C@H](OC(=O)c2cc(O)c(O)c(O)c2)[C@@H](O)[C@@H]1O)c1cc(O)c(O)c(O)c1` [1,2,6-tri-O-galloyl-β-D-glucose] it was “about 5 °C”.
On to `COC(=O)c1cc(O)c(O)c(O)c1` [MG, methyl gallate], for which the supercooling activity in series [2] is −3.3 °C.
Consider `O=C(O[C@@H]1Cc2c(O)cc(O)cc2O[C@@H]1c1cc(O)c(O)c(O)c1)c1cc(O)c(O)c(O)c1` [EGCG, epigallocatechin gallate], for which the “freezing temperature (INT50)” value in series [1] was −8.3 °C; in series [2], −6.9 °C; in series [3], −8.9 °C; in series [4] it was −8.4 °C; in series [5], −20.0 °C.
